Literature values in patent publication EP1085079A1, “Treatment compositions for fabrics” (THE PROCTER & GAMBLE COMPANY, priority 1999, dated 2001).

Row | Structure (SMILES) | stability over a wide pH range
1 | O=c1[nH]sc2ccccc12 [Proxel, 1,2-benzisothiazolin-3-one] | 4-12
2 | Cn1sc2c(c1=O)CCC2 [Promexal, 2-methyl-4,5-trimethylene-4-isothiazolin-3-one] | 4-12
